Patent publication US4068074A, “Cephalosporin derivatives having at the 3-position of the cephem ring a heterocyclic thiomethyl group with a carboxy or sulfo group and at the 7-position of the cephem ring an α-heterocylic acylaminophenyl-acetamide group” (priority 1974, dated 1978)
≈ marks a conversion by molar mass, not a printed value. Where two headings read alike, the source gives them in different places.

How the values were obtained:
Assay type in all cases: cell-based
[1] = tested on: Pseudomonas aeruginosa 99 (Gentamycin resistant); assay: MIC against bacteria (Table I), strain (5); conditions: (5) Pseudomonas aeruginosa 99 (Gentamycin resistant)
Description: (§1) Now, for illustrating the excellent pharmacological effects of the compounds of this invention, the values of MIC (γ/ml.) of the compounds against various bacteria are shown in Table 1, in which the compounds of this invention used are shown by example numbers.
(5) Pseudomonas aeruginosa 99 (Gentamycin resistant)

[2] = tested on: Proteus vulgaris 0X 19US; assay: MIC against bacteria (Table I), strain (2)
Description: as §1
(2) Proteus vulgaris 0X 19US

[3] = tested on: Micrococcus flavus ATCC 10240; assay: MIC against bacteria (Table I), strain (15)
Description: as §1
(15) Micrococcus flavus ATCC 10240

[4] = tested on: Shigella sonnei II 37148; assay: MIC against bacteria (Table I), strain (12); conditions: II37148
Description: as §1

[5] = tested on: Psuedomonas ovalis IMA 1002; assay: MIC against bacteria (Table I), strain (6); conditions: (6) Psuedomonas ovalis IMA 1002
Description: as §1
(6) Psuedomonas ovalis IMA 1002

[6] = tested on: Pseudomonas aeruginosa ATCC 8689; assay: MIC against bacteria (Table I), strain (4)
Description: as §1
(4) Pseudomonas aeruginosa ATCC 8689

[7] = tested on: Staphylococcus Shimanishi; assay: MIC against bacteria (Table I), strain (17)
Description: as §1
(17) Staphylococcus Shimanishi

[8] = tested on: Bacillus megatherium 10778; assay: MIC against bacteria (Table I), strain (13)
Description: as §1

[9] = tested on: Escherichia coli kauffmann 0-1; assay: MIC against bacteria (Table I), strain (7)
Description: as §1
(7) Escherichia coli kauffmann 0-1

[10] = tested on: Salmonella typhi H901 W; assay: MIC against bacteria (Table I), strain (9)
Description: as §1
(9) Salmonella typhi H901 W

[11] = tested on: Proteus mirabilis IXM OM-19; assay: MIC against bacteria (Table I), strain (3)
Description: as §1
(3) Proteus mirabilis IXM OM-19

[12] = tested on: Bacillus subtilis ATCC 6633; assay: MIC against bacteria (Table I), strain (14)
Description: as §1
(14) Bacillus subtilis ATCC 6633

[13] = tested on: Salmonella enteritidis; assay: MIC against bacteria (Table I), strain (10); conditions: (10) Salmonella enteritidis
Description: as §1
(10) Salmonella enteritidis

[14] = tested on: Shigella flexneri 2a 1675; assay: MIC against bacteria (Table I), strain (11); conditions: 2A1675
Description: as §1

[15] = tested on: Proteus vulgaris OXK US; assay: MIC against bacteria (Table I), strain (1); conditions: (1) Proteus vulgaris OXK US
Description: as §1
(1) Proteus vulgaris OXK US

[16] = tested on: Klebsiella pneumoniae ATCC 10031; assay: MIC against bacteria (Table I), strain (8); conditions: (8) Klebsiella pneumoniae ATCC 10031
Description: as §1
(8) Klebsiella pneumoniae ATCC 10031

[17] = tested on: Staphylococcus aureus 209P; assay: MIC against bacteria (Table I), strain (16)
Description: as §1
(16) Staphylococcus aureus 209P

[18] = tested on: Staphylococcus Onuma; assay: MIC against bacteria (Table I), strain (18)
Description: as §1
(18) Staphylococcus Onuma

[19] = (12) Shigella sonnei II 37148, read-out: MIC
[20] = (17) Staphylococcus Shimanishi, read-out: MIC
[21] = (13) Bacillus megatherium 10778, read-out: MIC
[22] = IXMOM19, (3) Proteus mirabilis IXM OM-19, read-out: MIC
[23] = ATCC6633, (14) Bacillus subtilis ATCC 6633, read-out: MIC
[24] = Salmonella enterica, read-out: MIC
[25] = (11) Shigella flexneri 2a 1675, read-out: MIC
[26] = (16) Staphylococcus aureus 209P, read-out: MIC
[27] = 0X19US, (2) Proteus vulgaris 0X 19US, read-out: MIC
[28] = ATCC8689, (4) Pseudomonas aeruginosa ATCC 8689, read-out: MIC
[29] = (18) Staphylococcus Onuma, read-out: MIC
[30] = ATCC10240, (15) Micrococcus flavus ATCC 10240, read-out: MIC

SMILES	MIC ([1]; read-out: MIC)	MIC ([2]; Proteus vulgaris, 0X19US)	MIC ([3]; Micrococcus flavus, ATCC10240)	MIC [4, 19]	MIC ([5]; read-out: MIC)	MIC [7, 20]	MIC [8, 21]	MIC ([9]; Escherichia coli)	MIC ([10]; Salmonella enterica, TYPHI)	MIC [11, 22]	MIC [12, 23]	MIC [13, 24]	MIC [14, 25]	MIC ([15]; read-out: MIC)	MIC ([16]; ATCC10031, read-out: MIC)	MIC [17, 26]	MIC [2, 27]	MIC [6, 28]	MIC ([12]; Bacillus subtilis, ATCC6633)	MIC [18, 29]	also measured
O=C(O)C1=C(CSc2nnc(C(=O)O)s2)CS[C@@H]2[C@H](NC(=O)[C@H](NC(=O)c3cnccc3O)c3ccccc3)C(=O)N12 [Example 11, 7-[D-α-(4-hydroxynicoytinoylamido)-α-phenylacetamido]-3-(5-carboxy-1,3,4-thiadiazol-2-yl)thiomethyl-Δ^3-cephem-4-carboxylic acid]	12.5 µg/mL (≈ 19.9 µM)	6.25 µg/mL (≈ 9.94 µM)	6.25 µg/mL (≈ 9.94 µM)	25 µg/mL (≈ 39.8 µM)	12.5 µg/mL (≈ 19.9 µM)	3.13 µg/mL (≈ 4.98 µM)	0.39 µg/mL (≈ 0.62 µM)	25 µg/mL (≈ 39.8 µM)	0.78 µg/mL (≈ 1.24 µM)	0.56 µg/mL (≈ 0.891 µM)	0.39 µg/mL (≈ 0.62 µM)	0.39 µg/mL (≈ 0.62 µM)	6.25 µg/mL (≈ 9.94 µM)	0.39 µg/mL (≈ 0.62 µM)	3.13 µg/mL (≈ 4.98 µM)	0.39 µg/mL (≈ 0.62 µM)	–	–	–	–	MIC ([6]; Pseudomonas aeruginosa, ATCC8689): 25 µg/mL (≈ 39.8 µM); MIC ([18]; Staphylococcus): 6.25 µg/mL (≈ 9.94 µM)
CSc1ccc2c(=O)c(C(=O)N[C@@H](C(=O)N[C@@H]3C(=O)N4C(C(=O)O)=C(CSc5nnc(SCC(=O)O)s5)CS[C@H]34)c3ccccc3)c[nH]c2c1 [Example 12, 7-[D-α-(7-methylthio-4-quinolon-3-ylcarboxamido)-α-phenylacetamido]-3-(5-carboxymethylthio-1,3,4-thiadiazol-2yl)thiomethyl-Δ^3-cephem-4-carboxylic acid]	12.5 µg/mL (≈ 16.2 µM)	–	3.13 µg/mL (≈ 4.06 µM)	3.13 µg/mL (≈ 4.06 µM)	25 µg/mL (≈ 32.4 µM)	–	0.39 µg/mL (≈ 0.506 µM)	6.25 µg/mL (≈ 8.11 µM)	0.19 µg/mL (≈ 0.246 µM)	0.39 µg/mL (≈ 0.506 µM)	–	0.19 µg/mL (≈ 0.246 µM)	1.56 µg/mL (≈ 2.02 µM)	0.19 µg/mL (≈ 0.246 µM)	0.39 µg/mL (≈ 0.506 µM)	0.78 µg/mL (≈ 1.01 µM)	0.19 µg/mL (≈ 0.246 µM)	25 µg/mL (≈ 32.4 µM)	3.13 µg/mL (≈ 4.06 µM)	6.25 µg/mL (≈ 8.11 µM)	MIC ([7]; Staphylococcus): 3.13 µg/mL (≈ 4.06 µM)
Cc1nc(SCC2=C(C(=O)O)N3C(=O)[C@@H](NC(=O)[C@H](NC(=O)c4cnccc4O)c4ccccc4)[C@H]3SC2)sc1C(=O)O [Example 14, 7-[D-α-(4-hydroxynicotinoylamido)-α-phenylacetamido]-3-(4-methyl-5-carboxythiazol-2-yl)thiomethyl-Δ^3-cephem-4-carboxylic acid]	12.5 µg/mL (≈ 19.5 µM)	–	–	3.13 µg/mL (≈ 4.88 µM)	25 µg/mL (≈ 39 µM)	12.5 µg/mL (≈ 19.5 µM)	0.39 µg/mL (≈ 0.608 µM)	3.13 µg/mL (≈ 4.88 µM)	1.56 µg/mL (≈ 2.43 µM)	0.19 µg/mL (≈ 0.296 µM)	0.78 µg/mL (≈ 1.22 µM)	0.78 µg/mL (≈ 1.22 µM)	1.56 µg/mL (≈ 2.43 µM)	0.19 µg/mL (≈ 0.296 µM)	6.25 µg/mL (≈ 9.74 µM)	–	0.78 µg/mL (≈ 1.22 µM)	25 µg/mL (≈ 39 µM)	–	12.5 µg/mL (≈ 19.5 µM)	MIC [3, 30]: 6.25 µg/mL (≈ 9.74 µM); MIC ([17]; Staphylococcus aureus, 209P): 1.56 µg/mL (≈ 2.43 µM)
Cc1cncc(C(=O)N[C@@H](C(=O)N[C@@H]2C(=O)N3C(C(=O)O)=C(CSc4nnc(SCC(=O)O)s4)CS[C@H]23)c2ccccc2)c1O [Example 27, 7-[D-α-(4-hydroxy-3-methylpyridin-5-ylcarboxamido)-α-phenylacetamido]-3-(5-carboxymethylthio-1,3,4-thiadiazol-2-yl)thiomethyl-Δ^3-cephem-4-carboxylic acid]	6.25 µg/mL (≈ 9.07 µM)	0.78 µg/mL (≈ 1.13 µM)	–	–	25 µg/mL (≈ 36.3 µM)	6.25 µg/mL (≈ 9.07 µM)	–	3.13 µg/mL (≈ 4.54 µM)	0.78 µg/mL (≈ 1.13 µM)	–	–	–	–	< 0.09 µg/mL	1.56 µg/mL (≈ 2.26 µM)	–	–	12.5 µg/mL (≈ 18.1 µM)	0.78 µg/mL (≈ 1.13 µM)	6.25 µg/mL (≈ 9.07 µM)	MIC [3, 30]: 6.25 µg/mL (≈ 9.07 µM); MIC ([4]; Shigella sonnei): 3.13 µg/mL (≈ 4.54 µM); MIC ([8]; Bacillus, 10778): 0.78 µg/mL (≈ 1.13 µM); MIC ([11]; Proteus mirabilis, IXMOM19): 0.78 µg/mL (≈ 1.13 µM); MIC ([14]; Shigella flexneri): 0.78 µg/mL (≈ 1.13 µM); MIC ([17]; Staphylococcus aureus, 209P): 1.56 µg/mL (≈ 2.26 µM)
O=C(O)CSc1nnc2sc(SCC3=C(C(=O)O)N4C(=O)C(NC(=O)[C@H](NC(=O)c5cnccc5O)c5ccccc5)[C@H]4SC3)nn12 (stereo partly drawn) [Example 34, 7-[D-α-(4-hydroxynicotinoyl-amido)-α-phenylacetamido]-3-(5-carboxymethylthio-[1,2,4]-triazolo-[3,4-b]-[1,3,4]-thiadiazol-2yl)thiomethyl-Δ^3-cephem-4-carboxylic acid]	–	–	–	–	–	–	–	–	–	–	–	–	–	–	–	–	–	–	–	–	MIC [1]: 12.5 µg/mL (≈ 17.5 µM); MIC ([2]; (2) Proteus vulgaris 0X 19US): 0.78 µg/mL (≈ 1.09 µM); MIC ([3]; (15) Micrococcus flavus ATCC 10240): 12.5 µg/mL (≈ 17.5 µM); MIC [5]: 25 µg/mL (≈ 35 µM); MIC ([6]; (4) Pseudomonas aeruginosa ATCC 8689): 25 µg/mL (≈ 35 µM); MIC ([7]; (17) Staphylococcus Shimanishi): 12.5 µg/mL (≈ 17.5 µM); MIC ([8]; (13) Bacillus megatherium 10778): 0.78 µg/mL (≈ 1.09 µM); MIC ([9]; (7) Escherichia coli kauffmann 0-1): 12.5 µg/mL (≈ 17.5 µM); MIC ([10]; (9) Salmonella typhi H901 W): 6.25 µg/mL (≈ 8.74 µM); MIC ([11]; (3) Proteus mirabilis IXM OM-19): 0.78 µg/mL (≈ 1.09 µM); MIC ([12]; (14) Bacillus subtilis ATCC 6633): 1.56 µg/mL (≈ 2.18 µM); MIC [13]: 1.56 µg/mL (≈ 2.18 µM); MIC [15]: < 0.09 µg/mL; MIC [16]: 12.5 µg/mL (≈ 17.5 µM); MIC ([17]; (16) Staphylococcus aureus 209P): 3.13 µg/mL (≈ 4.38 µM); MIC ([18]; (18) Staphylococcus Onuma): 25 µg/mL (≈ 35 µM)
